Experimental data published in article PMC9119314 (Frontiers in Pharmacology, 2022).

Each compound was assayed on A2780/cis cells (assay: Chemosensitivity MTT assay, cisplatin-resistant A2780/CIS). Conditions: Homo sapiens, A2780cis, 96 h, ± SE, read-out: Activity against A2780/cis cells, IC50.
Assay type: cell-based, human
Protocol: (§1) The chemosensitivity of compounds 3–6 was assessed in the wild-type immortalized human ovarian adenocarcinoma cell line A2780 and its daughter cell lines, which are resistant to the standard cancer chemotherapeutics doxorubicin (A2780/ADR) and cisplatin (A2780/CIS, all cell lines from ECACC, Salisbury, United Kingdom). A modified MTT assay was used ([Shnyder et al., 2008]). Cells (2 × 10^4/ml) were inoculated into each well of a 96-well plate and incubated for 24 h at 37°C in a humidified atmosphere containing 5% CO2. Compounds were then added at a range of concentrations to each well, and the plates were then incubated for a further 96 h. After 96 h, the culture medium was removed and 200 μL of 0.5 mg ml^–1 MTT solution (Sigma) in the complete medium was added to each well. Following a further 4 h incubation, the solution was removed from each well and 150 μL of DMSO was added to solubilize the formazan crystals resulting from MTT conversion. The absorbance values for the resulting solutions were read at 540 nm on an Azure 96-well microplate reader (Azure Biosynstems Inc.), and the cell survival was calculated as the absorbance of treated cells divided by the control.
In the case of `C[n+]1c2ccccc2cc2[n-]c3c(I)cc(I)cc3c21` [Compound 6, 7,9-diiodocryptolepine], the IC50 is reported as 280 ± 50 nM.
For `C[n+]1c2ccccc2cc2[n-]c3c(Br)cc(Br)cc3c21` [Compound 4, 7,9-Dibromocryptolepine], the IC50 was 580 ± 100 nM.
`C[n+]1c2ccccc2cc2[n-]c3ccc(I)cc3c21` [Compound 5, 7-iodocryptolepine] gave an IC50 of 310 ± 190 nM.

The compounds below were run on P. falciparum 3D7 (assay: In vitro antiplasmodial activity, P. falciparum 3D7 (SYBR Green I)). Conditions: Plasmodium falciparum; chloroquine-sensitive strain 3D7, 48 h; read-out: Activity against P. falciparum 3D7, IC50.
Assay type: cell-based
Protocol: P. falciparum (3D7 clone) and P. knowlesi (A1-H.1 clone) were maintained in culture in RPMI 1640 supplemented with 25 mM HEPES, 25 mM NaHCO3, 10 mM D-glucose, 2 mM L-glutamine, 50 mg/L hypoxanthine, 25 mg/L gentamicin sulfate, 5 g/L Albumax II, and 10% (v/v) equine serum (Thermo Fisher Scientific, 26-050-088). The P. falciparum (3D7) and P. knowlesi (A1-H.1) parasites were grown in human A^+ red blood cells (National Health Blood and Transplant, United Kingdom). The parasites were incubated in sealed flasks at 37°C under a culture gas mixture of 96% N2, 3% CO2, and 1% O2. ([van Schalkwyk et al., 2019]). The compounds were initially dissolved in DMSO prior to diluting in RPMI. All experiments were initiated using unsynchronized parasites with both the parasitemia and hematocrit set to 1%. Drug susceptibility assays were set up in 96-well, flat-bottom microplates in a final volume of 200 μL, as described previously ([van Schalkwyk et al., 2017]). The controls were included for the background fluorescence (0% viability; parasites exposed to a supralethal 10 μM chloroquine concentration) and 100% growth (parasites in drug-free wells). The plates were incubated for one complete life cycle (27 h for P. knowlesi or 48 h for P. falciparum in vitro) at 37°C in a modular incubation chamber (Billups-Rothenburg Inc.) under the culture gas. Upon termination of the assay, the plates were stored at −20°C overnight. The SYBR Green I fluorescent method was used to measure parasite survival ([Bennett et al., 2004]; [Smilkstein et al., 2004]). After the microplates were thawed, 100 μL from each well was transferred into a duplicate plate. To this was added 100 μL of SYBR green solution [SYBR Green I (Thermo Fisher Scientific, S7563), diluted 1:5000 in a lysis buffer made of 20 mM Tris, 5 mM EDTA, 0.008% (w/v) saponin, 0.08% (v/v) Triton X-100, pH 7.5]. The plates were stored in the dark for 1 h before fluorescence was read at a 490 nm excitation wavelength and a 520 nm emission wavelength on a Spectramax M3 microplate reader (Molecular Devices) ([van Schalkwyk et al., 2017]). The background fluorescence (wells with parasites at 0% viability) was subtracted from all drug assay wells, and the parasite proliferation was determined as a percentage of the fluorescence in the drug-free control wells.
Compound `C[n+]1c2ccccc2cc2[n-]c3c(I)cc(I)cc3c21` [Compound 6, 7,9-diiodocryptolepine] has an IC50 of 660 ± 60 nM.
`C[n+]1c2ccccc2cc2[n-]c3c(Br)cc(Br)cc3c21` [Compound 4, 7,9-Dibromocryptolepine] gave an IC50 of 760 ± 60 nM.
`C[n+]1c2ccccc2cc2[n-]c3ccc(I)cc3c21` [Compound 5, 7-iodocryptolepine] showed an IC50 of 92 ± 20 nM.

What follows are compounds tested on A2780/WT cells (assay: Chemosensitivity MTT assay, A2780 wild type). Conditions: Homo sapiens, A2780, 96 h, ± SE, read-out: Activity against A2780/WT cells, IC50.
Assay type: cell-based, human
Protocol: as §1
With `C[n+]1c2ccccc2cc2[n-]c3c(I)cc(I)cc3c21` [Compound 6, 7,9-diiodocryptolepine] the IC50 was 130 ± 70 nM.
Compound `C[n+]1c2ccccc2cc2[n-]c3c(Br)cc(Br)cc3c21` [Compound 4, 7,9-Dibromocryptolepine] has an IC50 of 200 ± 580 nM.
For `C[n+]1c2ccccc2cc2[n-]c3ccc(I)cc3c21` [Compound 5, 7-iodocryptolepine], the IC50 was 60 ± 10 nM.

The compounds below were run on P. berghei sporozoites (assay: P. berghei liver-stage assay (sporozoites in Hep G2-A16-CD81 cells, luciferase)). Conditions: Plasmodium berghei, HepG2-A16-CD81; sporozoites in Hep G2-A16-CD81 cells, 48 h post infection, ± SE; read-out: Activity against the P. berghei liver stage, IC50.
Assay type: cell-based, Plasmodium berghei
Protocol: Briefly, 3000 Hep G2-A16-CD81 cells/well were seeded in 1536-well plates (Greiner Bio). 50 nL of the test and control compound diluted in DMSO was added and incubated for 24 h. […] The plates were centrifuged for 5 min at 330 × g and incubated at 37°C. Forty-eight hours post infection, 2 μL of luciferin reagent (Promega BrightGlo) was added to each well, and the luciferase activity was detected using a Perkin Elmer Envision plate reader. […] To counter-screen for cellular toxicity, Hep G2-A16-CD81 cells were seeded as above for the sporozoite liver-stage assay but in the absence of sporozoites. Toxicity measurements were performed by adding Promega CellTiterGlo® (2 μL), followed by luminescence measurements. Curve fitting was done as described above using puromycin (25 μM) as a positive control and DMSO as negative control wells.
In the case of `C[n+]1c2ccccc2cc2[n-]c3c(I)cc(I)cc3c21` [Compound 6, 7,9-diiodocryptolepine], the IC50 is reported as 6130 ± 620 nM.
`C[n+]1c2ccccc2cc2[n-]c3c(Br)cc(Br)cc3c21` [Compound 4, 7,9-Dibromocryptolepine] gave an IC50 of 5820 ± 260 nM.
`C[n+]1c2ccccc2cc2[n-]c3ccc(I)cc3c21` [Compound 5, 7-iodocryptolepine] gave an IC50 of 14600 ± 420 nM.

Same assay, conditions: SI with respect to Hep G cells
In the case of `C[n+]1c2ccccc2cc2[n-]c3c(I)cc(I)cc3c21` [Compound 6, 7,9-diiodocryptolepine], the “Selectivity index (SI), P. berghei liver stage with respect to Hep G cells” value is reported as 4.6.
`C[n+]1c2ccccc2cc2[n-]c3c(Br)cc(Br)cc3c21` [Compound 4, 7,9-Dibromocryptolepine] was tested, and the “Selectivity index (SI), P. berghei liver stage with respect to Hep G cells” value was 1.17.
For `C[n+]1c2ccccc2cc2[n-]c3ccc(I)cc3c21` [Compound 5, 7-iodocryptolepine], the “Selectivity index (SI), P. berghei liver stage with respect to Hep G cells” value was 0.46.

What follows are compounds tested on A2780/ADR cells (assay: Chemosensitivity MTT assay, doxorubicin-resistant A2780/ADR). Conditions: Homo sapiens, 96 h, ± SE, read-out: Activity against A2780/ADR cells, IC50.
Assay type: cell-based
Protocol: as §1, with “A” for “The chemosensitivity of compounds 3–6 was assessed in the wild-type immortalized human ovarian adenocarcinoma cell line A2780 and its daughter cell lines, which are resistant to the standard cancer chemotherapeutics doxorubicin (A2780/ADR) and cisplatin (A2780/CIS, all cell lines from ECACC, Salisbury, United Kingdom). A”
`C[n+]1c2ccccc2cc2[n-]c3c(I)cc(I)cc3c21` [Compound 6, 7,9-diiodocryptolepine] showed an IC50 of 180 ± 20 nM.
In the case of `C[n+]1c2ccccc2cc2[n-]c3c(Br)cc(Br)cc3c21` [Compound 4, 7,9-Dibromocryptolepine], the IC50 is reported as 310 ± 60 nM.
`C[n+]1c2ccccc2cc2[n-]c3ccc(I)cc3c21` [Compound 5, 7-iodocryptolepine] gave an IC50 of 180 ± 10 nM.
